{"source": "patent US20100286220A1", "about": "“HNF4alpha ANTAGONISTS AND METHODS OF USE” (Burnham Institute for Medical Research, priority 2009, published 2010)", "key": {"[1]": {"test_system": "endogenous insulin message", "assay": "Secondary confirmatory assay, endogenous insulin message in T6PNE cells", "assay_type": "cell-based, human"}, "HNF4α": {"target": "T1, HNF4α (Homo sapiens, UniProt P41235)", "T1 sequence (P41235 1-474)": "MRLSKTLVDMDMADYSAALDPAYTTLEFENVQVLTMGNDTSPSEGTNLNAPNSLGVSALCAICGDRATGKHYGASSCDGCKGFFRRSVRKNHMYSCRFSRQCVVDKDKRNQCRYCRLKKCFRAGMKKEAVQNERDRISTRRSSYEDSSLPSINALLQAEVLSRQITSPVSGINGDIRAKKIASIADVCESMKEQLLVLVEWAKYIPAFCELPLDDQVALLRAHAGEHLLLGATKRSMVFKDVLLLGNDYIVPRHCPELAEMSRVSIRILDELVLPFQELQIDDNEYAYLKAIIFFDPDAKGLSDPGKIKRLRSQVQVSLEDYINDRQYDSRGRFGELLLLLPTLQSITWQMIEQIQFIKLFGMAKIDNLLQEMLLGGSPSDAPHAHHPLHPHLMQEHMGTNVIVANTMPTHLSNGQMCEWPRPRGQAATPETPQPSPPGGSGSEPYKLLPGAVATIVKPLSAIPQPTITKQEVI", "assay": "HNF4α subcellular localization", "assay_type": "cell-based", "text": "Many ligands for nuclear receptor subfamilies induce the translocation of their receptors between the cytoplasm and the nucleus."}, "human PPARγ": {"target": "T2, human PPARγ (Homo sapiens, UniProt P37231)", "T2 construct": "expressed in transfected cells; host or cells: HeLa cells", "T2 sequence (P37231 1-505)": "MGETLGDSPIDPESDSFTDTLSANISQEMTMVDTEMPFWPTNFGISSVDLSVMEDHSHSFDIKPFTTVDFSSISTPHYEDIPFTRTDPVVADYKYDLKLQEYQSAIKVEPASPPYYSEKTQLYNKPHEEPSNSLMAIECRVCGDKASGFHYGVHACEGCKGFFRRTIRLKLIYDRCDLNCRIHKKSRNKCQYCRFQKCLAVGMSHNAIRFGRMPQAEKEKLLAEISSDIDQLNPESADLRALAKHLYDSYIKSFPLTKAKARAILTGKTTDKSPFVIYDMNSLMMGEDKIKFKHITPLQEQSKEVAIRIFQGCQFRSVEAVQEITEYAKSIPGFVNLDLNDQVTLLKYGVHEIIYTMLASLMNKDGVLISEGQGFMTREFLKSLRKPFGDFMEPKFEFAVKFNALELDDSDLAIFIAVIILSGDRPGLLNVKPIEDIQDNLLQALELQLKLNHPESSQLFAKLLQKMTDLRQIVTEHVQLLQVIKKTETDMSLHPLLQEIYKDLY", "assay": "PPAR response element (PPRE)-luciferase reporter assay in HeLa cells", "assay_type": "cell-based", "conditions": "PPRE reporter plasmid with or without human PPARγ expression vector", "experimental": "The core structure of BIM5078, benzimidazole, is related to known PPARγ compounds that functions as agonists or antagonists. BIM5078 was used in a PPAR response element (PPRE)-luciferase reporter assay. HeLa cells were co-transfected with a PPAR response element (PPRE) reporter plasmid and a human PPARγ expression vector. […] Known PPARγ agonists were used as positive controls. The same PPARγ agonist compounds were tested on T6PNE ins-eGFP for their ability to repress the insulin promoter. Known PPARγ agonists are unable to suppress insulin gene transcription. Similarly, other PPAR agonists of the alpha and delta class were also negative in the assay. However, because HNF4α also binds to PPREs, BIM5078's ability to bind HNF4α was further investigated."}, "HNF1α transcription": {"test_system": "HNF1α transcription", "assay": "HNF1α transcription", "assay_type": "cell-based", "experimental": "HNF1α is a downstream target of HNF4α and has a known binding site on the human insulin gene promoter. […] It is unclear whether HNF4α is modulating the insulin promoter directly or indirectly through a downstream target. Overexpression of HNF1α or HNF4α would overcome the repressive effects of BIM5078. The repressive effect of BIM5078 was lost when it was added to T6PNE cells with high levels of induced E47 (FIG. 8). High E47 levels are thought to resemble the normal state of a β-cell while low levels of E47 to simulate the stress condition."}, "[2]": {"assay": "HBV surface antigen levels in Huh7 cells transfected with wild-type HBV construct (pWTD)", "assay_type": "cell-based, Hepatitis B virus", "text": "(§1) The HBsAg is seen as doublet bands with different glycosylation forms (GP33 and GP36).\n(§2) BIM5078 is an HNF4α antagonist and can be useful in treatment of diseases involving HNF4α modulation. There are a number of HNF4α binding sites in the HBV genome, including the enhancer region, the core promoter and the polymerase. BIM5078 can downregulate the core and polymerase, and it has been discovered that it can effectively suppress or eliminate HBV proliferation. Also, the HNF4α binding sites are well-conserved and no mutations of these sites have yet been discovered in the various HBV strains. Thus, targeting HNF4α can circumvent the resistance seen with traditional therapies. […] The ability of the HNF4α antagonist BIM5078 to reduce viral production in Huh7 cells transfected with the wild-type HBV construct (pWTD) was tested. […] The large decrease in the two glycosylation forms of the surface antigen was visualized as doublet bands (FIG. 9)."}, "HBV": {"test_system": "HBV", "assay": "HBV surface antigen levels in Huh7 cells transfected with wild-type HBV construct (pWTD)", "assay_type": "cell-based, Hepatitis B virus", "conditions": "GP33 and GP36 doublet bands", "text": "as §1, §2"}, "human insulin promoter": {"test_system": "human insulin promoter", "assay": "High-throughput screen / confirmatory assay, insulin promoter-GFP (ins-GFP) transgene in T6PNE cells", "assay_type": "cell-based", "conditions": "T6PNE ins-eGFP cells", "text": "Primary β-cells are in short supply and have a strong tendency to undergo apoptosis when manipulated in culture. Therefore, a β-cell model was used for the studies regarding β-cell growth and differentiation. T6PNE cells were derived from human fetal islets and were engineered to express the transcription factors PDX-1, NeuroD1, and E47, which are all present in the human β-cell. It was observed that induction of E47 upregulates the expression of many genes associated with β-cell function, including insulin. Consistent with what occurs in primary β-cells, it also was observed that E47 induction caused growth arrest in the cell line. Therefore, E47 was […] in T6PNE cells. […] Therefore, expression in the transfunctioned cell can be used as a baseline so both up and down regulators of the insulin promoter can be monitored in the screening assays. […] Insulin expression was monitored and visualized by the ins-GFP transgene. Hits were determined and dependent on the ability to differentiate between a baseline condition and the corresponding positive or negative control. […]\nThe HTS was performed in a 384-well format where primed T6PNE cells express the ins-GFP transgene and the test compound was added 24 hours later. […] The Images were then analyzed using algorithms (Jeff Price at the Screening Center at the Burnham Institute). […]"}, "[3]": {"conditions": "hoFH patients, ezetimibe 10 mg/day added to statin 80 mg/day; cited from earlier work"}}, "note": "“Also recorded” adds a separate entry of the source."}
{"molecule": "4-hydroxytamoxifen [reference compound]", "values": [{"measurement": "endogenous insulin message with E47 induction", "setting": "[1]; T6PNE cells with inducible E47", "value": "upregulated in a dose-dependent manner"}]}
{"molecule": "Cc1nc2ccccc2n1S(=O)(=O)c1cc([N+](=O)[O-])ccc1Cl", "note": "[BIM5078, 1-(2-Chloro-5-nitrophenylsulfonyl)-2-methyl-1H-benzo[d]imidazole]", "values": [{"measurement": "HNF4α localization upon addition of compound", "setting": "HNF4α", "value": "localized entirely in the nucleus"}, {"measurement": "repressive effect on insulin expression at high E47", "setting": "[1]; T6PNE cells with high levels of induced E47 (high 4-hydroxytamoxifen)", "value": "lost"}, {"measurement": "activation of PPRE reporter", "setting": "human PPARγ", "value": "activated the PPRE"}, {"measurement": "HNF1α transcription", "setting": "HNF1α transcription", "value": "decrease the HNF1α transcription"}, {"measurement": "actin levels", "setting": "[2]", "value": "no dependence"}, {"measurement": "HBV surface antigen (HBsAg) levels", "setting": "HBV", "value": "decreased their levels of surface antigen; also recorded: decreased the HBsAg protein expression"}]}
{"molecule": "CCCCCCCCCCCCCCCC(=O)O", "note": "[palmitic acid]", "values": [{"measurement": "insulin promoter activity / insulin gene transcription, effect in words", "setting": "human insulin promoter", "value": "suppresses the insulin promoter activity in a dose-dependent fashion"}]}
{"molecule": "O=C1[C@H](CC[C@H](O)c2ccc(F)cc2)[C@@H](c2ccc(O)cc2)N1c1ccc(F)cc1", "note": "[ezetimibe]", "values": [{"measurement": "total reduction of LDL-C levels", "setting": "[3]", "value": 27, "unit": "%"}]}
